Read-outs that look alike come from different tables or passages of the source.
Key:
Human M3 receptor = target: T1, Human M3 receptor (Homo sapiens, UniProt P20309); assay: FLIPR Calcium 6 assay for inhibitory activity against Human M3 receptor in CHO cells; format: cell-based; details: FLIPR calcium signal, antagonist mode
T1 construct: expressed in transfected cells
Procedure: (§1) CHO cell lines stably expressing Human M2 and Human M3, respectively, were used. The effects of the compounds on the activity of the Human M2 and Human M3 receptors were determined using the FLIPR Calcium 6 Assay Kit. The effects of the test substances on Human M2 and Human M3 were studied according to changes in cell signal intensity, and the corresponding concentration-response curves were calculated.
(§2) • 1. The Human M2-CHO and Human M3-CHO cell lines were cultured in an F-12 culture medium containing 10% fetal bovine serum (AusGeneX, FBS500-S) and 0.2 mg/mL Hygromycin B (Solarbio, H8080-1g) at a culture temperature of 37 °C with 5% carbon dioxide. • 2. Cell passage: The old culture medium was removed in a biosafety cabinet, and the cells were washed once with PBS; 1 mL of 0.25% Trypsin-EDTA (Gibco, 25200-072) solution was then added; and the cells were incubated at 37 °C for about 2 min. When the cells were detached from the bottom of the dish, about 5 mL of complete culture medium pre-heated at 37 °C was added. The cell suspension was gently pipetted to separate the aggregated cells. The cell suspension was transferred to a sterile centrifuge tube and centrifuged at 1000 rpm for 5 min. • 3. In order to maintain the physiological activity of the cells, the experimental cell confluence was controlled at about 80% as observed under an inverted microscope (Olympus, CKX53).
(§3) • 1. Cell plating: Human M2-CHO and Human M3-CHO cells were digested, collected, resuspended, counted, and then seeded into a 384-well cell plate (Corning, 3764) at a density of 1.2 × 10^4 cells/25 µL /well; the cell plate was then incubated in a 5% CO2 incubator at 37 °C for about 16-20 h. • 2. On day 2, an Assay Buffer (20 mM HEPES + 1× HBSS) was prepared according to the instructions of the FLIPR Calcium 6 Assay Kit (Molecular Devices, R8191); after 20× Component A was freeze-thawed to room temperature, it was diluted to 1× loading buffer with the Assay buffer, and placed at room temperature for later use. • 3. The culture medium in the cell plate was removed, 35 µL of the 1× loading buffer described above was quickly added to each well, and the cell plate was centrifuged using a microplate low speed centrifuge and then incubated in the dark at 37 °C for 120 min. • 4. The working solutions of a positive compound and the test compounds were each prepared in a 96-well dilution plate (Biao Sen, P-0.6-BSA-96-S); 5 µL of each solution was transferred to the corresponding cell wells; and the cell plate was incubated at 37 °C for 30 min in the dark. • 5. An agonist working solution was prepared and transferred to a 384-well compound plate (Corning, 264573) at 20 µL /well. • 6. The cell plate (Corning, 3764), the 384-well compound plate (Corning, 264573), and pipette tips were placed at corresponding positions of the FLIPR instrument; 10 µL of the agonist diluted in step 5 was added to each experimental well using the FLIPR® Penta; and data were collected at the wavelength of 515-575 nm. • 7. The signal values were plotted against the compound concentrations, and based on a non-linear regression method using the GraphPad Prism software, the curves were fit, and the IC50 values were calculated.
(§4) • 1) Z′ factor = 1−3 × (SDMax+SDMin)/(AVGMax−AVGMin) [formula] • 2) CV Max = (SDMax/AVGMax) × 100% [formula] • 3) CV Min = (SDMin/AVGMin) × 100% [formula] • 4) Signal−to−noise ratio S/B = AVGMax /AVGMin [formula] • 5) The IC50 values of the compounds were calculated using the GraphPad Prism non-linear fitting formula: Y = Bottom + (Top−Bottom)/(1+10^(∧)((LogIC50−X)×HillSlope)) [formula] • 6) % inhibition rate formula: [formula] • Ratiopositive: mean value of positive control. • Ratiovehicle: mean value of negative control (0.1% DMSO).
(§5) According to the experimental method described above, the inhibitory activity of the compounds disclosed herein against Human M2 and M3 receptors was assayed with AFDX-116 as a positive control compound. Table 3. […]

Human M2 receptor = target: T2, Human M2 receptor (Homo sapiens, UniProt P08172); assay: FLIPR Calcium 6 assay for inhibitory activity against Human M2 receptor in CHO cells; format: cell-based; details: for M3/M2 selectivity: IC50 ratio of M3/M2
T2 construct: expressed in transfected cells
T2 sequence (P08172 1-466): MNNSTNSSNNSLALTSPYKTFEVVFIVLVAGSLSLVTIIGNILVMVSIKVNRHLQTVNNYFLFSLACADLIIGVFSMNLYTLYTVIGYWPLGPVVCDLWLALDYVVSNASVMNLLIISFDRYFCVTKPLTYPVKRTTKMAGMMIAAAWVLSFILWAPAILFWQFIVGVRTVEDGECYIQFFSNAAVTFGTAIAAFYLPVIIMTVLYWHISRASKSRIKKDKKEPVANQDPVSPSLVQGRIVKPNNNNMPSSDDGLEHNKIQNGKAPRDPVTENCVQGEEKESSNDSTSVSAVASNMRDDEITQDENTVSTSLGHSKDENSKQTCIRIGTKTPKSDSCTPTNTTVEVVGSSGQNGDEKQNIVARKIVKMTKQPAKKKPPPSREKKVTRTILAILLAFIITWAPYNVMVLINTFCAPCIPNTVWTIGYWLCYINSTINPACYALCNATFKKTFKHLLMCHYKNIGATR
Procedure: as §1, §2, §3, §4, §5

guinea pig myopia model = assay: In vivo efficacy evaluation in form-deprivation guinea pig myopia model (diopter by infrared photorefractor); details: 20 µL/eye once daily; for slowing down the progression of refraction decrease: 0.5 wt% eye drops, versus negative control group
Description: Objective: To evaluate the inhibitory effect of compound 2 on the progression of myopia (refractive error) in a guinea pig myopia model. Young guinea pigs have inherent refractive hyperopia, which gradually progresses towards emmetropization during eye development. Form deprivation accelerates the process of emmetropization. In this test, the delaying effect of compound 2 on the process of refractive emmetropization in modeled young guinea pigs was investigated.
Sample preparation: 0.5 wt% compound 2 eye drops were formulated with compound 2 and a 10 wt% aqueous sulfobutylether-beta-cyclodextrin solution.
Grouping: The guinea pigs were evenly divided into 3 groups according to the refractive value of the right eye: a negative control group, a model control group, and a compound 2 group.
Modeling: Animals other than the negative control group were modeled. A myopia model was made by suturing the eyelid of the right eye. The modeling procedure is as follows: After hair removal was performed on the right eyes of all animals, the right eyes were sutured in a U-shape to achieve form deprivation and accelerate the process of emmetropization. The guinea pigs were fed for 28 days after the first suture.
Administration: Starting from the day of suture modeling, eye drops were administered to the right eyes of the animals in each group according to settings (the samples for administration are shown in Table 4) at 20 µL /eye once daily for 28 consecutive days. Table 4. Administration and dosage design for each group
Test: Diopter was measured on day 15 and day 29 after modeling using an infrared photorefractor (ST-PR.01, Striatech).

[1] = Human M2-CHO cells, FLIPR calcium signal, antagonist mode, read-out: M2 IC50

T1 sequence (P20309 whole entry): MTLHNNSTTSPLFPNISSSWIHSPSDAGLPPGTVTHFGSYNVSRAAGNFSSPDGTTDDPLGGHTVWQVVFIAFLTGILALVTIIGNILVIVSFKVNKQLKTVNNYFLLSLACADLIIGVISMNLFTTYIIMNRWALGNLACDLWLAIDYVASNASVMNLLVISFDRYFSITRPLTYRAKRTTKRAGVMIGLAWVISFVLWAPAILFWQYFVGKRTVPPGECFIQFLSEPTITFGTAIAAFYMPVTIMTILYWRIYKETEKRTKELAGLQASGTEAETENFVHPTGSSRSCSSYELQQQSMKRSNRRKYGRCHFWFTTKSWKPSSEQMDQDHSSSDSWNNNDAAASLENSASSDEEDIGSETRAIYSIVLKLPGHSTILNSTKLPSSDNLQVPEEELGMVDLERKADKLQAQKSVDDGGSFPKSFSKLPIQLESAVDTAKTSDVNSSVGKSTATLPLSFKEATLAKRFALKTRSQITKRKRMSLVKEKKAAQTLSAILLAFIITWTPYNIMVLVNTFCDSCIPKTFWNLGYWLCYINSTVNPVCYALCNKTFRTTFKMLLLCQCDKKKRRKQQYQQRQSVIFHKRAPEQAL

Structure (SMILES)	IC50 (Human M3 receptor)	IC50 (Human M2 receptor; [1])	M3/M2 selectivity (Human M2 receptor)	diopter (refractive value) (guinea pig myopia model; day 15, 0.5 wt% compound 2 eye drops, right eye, form deprivation by eyelid suture)	slowing down the progression of refraction decrease (guinea pig myopia model; day 15 of administration)	slowing down the progression of refraction decrease (guinea pig myopia model; day 29 of administration)	IC50 (Human M2 receptor)
CCN(CC)CC1CCCCN1CC(=O)N1c2ccccc2C(=O)Nc2cccnc21 (stereo not drawn) [AFDX-116, reference compound]	2100 nM	166 nM	12	–	–	–	–
CCN(CCN(C)C1CCC2(CCCCC2)CC1)C(=O)CCC(=O)N1c2ccccc2C(=O)Nc2cccnc21 [Compound 1]	611 nM	3.23 nM	189	–	–	–	–
CCN(CCN1CCC2(CCCCC2)CC1)C(=O)CCC(=O)N1c2ccccc2C(=O)Nc2cccnc21 [Compound 2]	55.9 nM	0.733 nM	76	increase in the positive refractive value	superior to the negative control group	comparable to the negative control group	–
CCN(CCN(C)CC1CCC2(CCCCC2)CC1)C(=O)CCC(=O)N1c2ccccc2C(=O)Nc2cccnc21 [Compound 3]	6820 nM	6.54 nM	1041	–	–	–	–
CCN(CCN(C)CC12CCC(CC1)C2)C(=O)CCC(=O)N1c2ccccc2C(=O)Nc2cccnc21 [Compound 4]	132 nM	1.49 nM	88.6	–	–	–	–
CCN(CCN1C2CCCC1CC2)C(=O)CCC(=O)N1c2ccccc2C(=O)Nc2cccnc21 [Compound 5]	673 nM	–	245.6	–	–	–	2.74 nM
CCN(CCN(C)C12CC3CC(CC(C3)C1)C2)C(=O)CCC(=O)N1c2ccccc2C(=O)Nc2cccnc21 [Compound 6]	723 nM	0.863 nM	838	–	–	–	–
CCN(CCN1CC2CC2C1)C(=O)CCC(=O)N1c2ccccc2C(=O)Nc2cccnc21 (stereo not drawn) [Compound 7]	54.1 nM	0.714 nM	75.87	–	–	–	–
CCN(CCN1CCC2(CCC2)CC1)C(=O)CCC(=O)N1c2ccccc2C(=O)Nc2cccnc21 [Compound 8]	141 nM	0.896 nM	157.7	–	–	–	–
CCN(CCN(C)C1CC2(CCC2)C1)C(=O)CCC(=O)N1c2ccccc2C(=O)Nc2cccnc21 [Compound 9]	881 nM	2.98 nM	295.7	–	–	–	–
CCN(CCN(C)C1CC2(CCCCC2)C1)C(=O)CCC(=O)N1c2ccccc2C(=O)Nc2cccnc21 [Compound 10]	1970 nM	2.58 nM	762	–	–	–	–
CCN(CCN(C)C1CCC2(CCCC2)C1)C(=O)CCC(=O)N1c2ccccc2C(=O)Nc2cccnc21 (stereo not drawn) [Compound 11]	277 nM	1.86 nM	149	–	–	–	–
CCN(CCN(C)C1CC2CCCC2C1)C(=O)CCC(=O)N1c2ccccc2C(=O)Nc2cccnc21 (stereo not drawn) [Compound 12]	184 nM	1.82 nM	101	–	–	–	–
CCN(CCN(C)C1C2CCCC21)C(=O)CCC(=O)N1c2ccccc2C(=O)Nc2cccnc21 (stereo not drawn) [Compound 13]	260 nM	5.46 nM	47.6	–	–	–	–
O=C1Nc2cccnc2N(C(=O)CCC(=O)N2CCCCC2CN2CCC3(CCCCC3)CC2)c2ccccc21 (stereo not drawn) [Compound 14]	328 nM	0.833 nM	394.1	–	–	–	–
O=C1Nc2cccnc2N(C(=O)CCC(=O)N2CCCC2CN2CCC3(CCCCC3)CC2)c2ccccc21 (stereo not drawn) [Compound 15]	247 nM	1.14 nM	217.6	–	–	–	–
